Test results published in the supplement of paper PMC10733146.

Tests used:
Experiment in all cases: viability relative to DMSO control (fraction); higher = less drug effect (more viable cells)
Details in all cases: 48 h
[1] = tested on: primary DLBCL patient cells (S082)
Summary of the method: (§1)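 Primary mononuclear tumour cells (Ficoll-isolated from blood or bone marrow, or processed lymph node; fresh or cryopreserved) were plated at 4 × 10^4 cells per well in 384-well plates with pre-plated compounds at five concentrations, one well each. Medium was RPMI-1640 with penicillin/streptomycin, L-glutamine and human serum, at 37 °C and 5% CO2 for 48 h. Viability was read as CellTiter-Glo luminescence relative to the median of 16 inner DMSO wells.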

[2] = tested on: primary B-PLL patient cells (S016)
Summary of the method: as §1

[3] = tested on: primary AML patient cells (S011)
Summary of the method: as §1

[4] = tested on: primary FL patient cells (S087)
Summary of the method: as §1

[5] = tested on: primary MCL patient cells (S041)
Summary of the method: as §1

[6] = tested on: primary DLBCL patient cells (S076)
Summary of the method: as §1

[7] = tested on: primary T-NHL patient cells (S058)
Summary of the method: as §1

[8] = tested on: primary T-PLL patient cells (S008)
Summary of the method: as §1

[9] = tested on: primary AML patient cells (S007)
Summary of the method: as §1

[10] = tested on: primary AML patient cells (S006)
Summary of the method: as §1

[11] = tested on: primary AML patient cells (S081)
Summary of the method: as §1

[12] = tested on: primary ALL patient cells (S088)
Summary of the method: as §1

[13] = tested on: primary AML patient cells (S055)
Summary of the method: as §1

[14] = tested on: primary AML patient cells (S009)
Summary of the method: as §1

[15] = tested on: primary DLBCL patient cells (S049)
Summary of the method: as §1

[16] = tested on: primary MCL patient cells (S063)
Summary of the method: as §1

[17] = tested on: primary AML patient cells (S021)
Summary of the method: as §1

[18] = tested on: primary AML patient cells (S060)
Summary of the method: as §1

Nc1ccc2ncnc(NCCc3ccc(Oc4ccccc4)cc3)c2c1 [EVP4593]
viability ([1]; 0.008 µM): 0.83 | viability ([1]; 0.04 µM): 0.736 | viability ([1]; 0.2 µM): 0.588 | viability ([1]; 1 µM): 0.462 | viability ([1]; 5 µM): 0.452 | viability ([2]; 0.008 µM): 0.929 | viability ([2]; 0.04 µM): 0.874 | viability ([2]; 0.2 µM): 0.8 | viability ([2]; 1 µM): 0.716 | viability ([2]; 5 µM): 0.713 | viability ([3]; 0.008 µM): 0.746 | viability ([3]; 0.04 µM): 0.633 | viability ([3]; 0.2 µM): 0.617 | viability ([3]; 1 µM): 0.467 | viability ([3]; 5 µM): 0.459 | viability ([4]; 0.008 µM): 0.933 | viability ([4]; 0.04 µM): 0.915 | viability ([4]; 0.2 µM): 0.862 | viability ([4]; 1 µM): 0.811 | viability ([4]; 5 µM): 0.79 | viability ([5]; 0.008 µM): 0.902 | viability ([5]; 0.04 µM): 0.93 | viability ([5]; 0.2 µM): 0.873 | viability ([5]; 1 µM): 0.716 | viability ([5]; 5 µM): 0.729 | viability ([6]; 0.008 µM): 0.999 | viability ([6]; 0.04 µM): 0.989 | viability ([6]; 0.2 µM): 0.741 | viability ([6]; 1 µM): 0.657 | viability ([6]; 5 µM): 0.551 | viability ([7]; 0.008 µM): 1.09 | viability ([7]; 0.04 µM): 0.934 | viability ([7]; 0.2 µM): 0.784 | viability ([7]; 1 µM): 0.809 | viability ([7]; 5 µM): 0.715 | viability ([8]; 0.008 µM): 0.997 | viability ([8]; 0.04 µM): 0.971 | viability ([8]; 0.2 µM): 0.894 | viability ([8]; 1 µM): 0.861 | viability ([8]; 5 µM): 0.868 | viability ([9]; 0.008 µM): 0.722 | viability ([9]; 0.04 µM): 0.514 | viability ([9]; 0.2 µM): 0.379 | viability ([9]; 1 µM): 0.257 | viability ([9]; 5 µM): 0.217 | viability ([10]; 0.008 µM): 0.855 | viability ([10]; 0.04 µM): 0.755 | viability ([10]; 0.2 µM): 0.557 | viability ([10]; 1 µM): 0.362 | viability ([10]; 5 µM): 0.248 | viability ([11]; 0.008 µM): 0.859 | viability ([11]; 0.04 µM): 0.821 | viability ([11]; 0.2 µM): 0.799 | viability ([11]; 1 µM): 0.784 | viability ([11]; 5 µM): 0.78 | viability ([12]; 0.008 µM): 0.151 | viability ([12]; 0.04 µM): 0.168 | viability ([12]; 0.2 µM): 0.147 | viability ([12]; 1 µM): 0.108 | viability ([12]; 5 µM): 0.088 | viability ([13]; 0.008 µM): 0.913 | viability ([13]; 0.04 µM): 0.853 | viability ([13]; 0.2 µM): 0.791 | viability ([13]; 1 µM): 0.828 | viability ([13]; 5 µM): 0.828 | viability ([14]; 0.008 µM): 0.792 | viability ([14]; 0.04 µM): 0.705 | viability ([14]; 0.2 µM): 0.749 | viability ([14]; 1 µM): 0.636 | viability ([14]; 5 µM): 0.691 | viability ([15]; 0.008 µM): 0.89 | viability ([15]; 0.04 µM): 0.763 | viability ([15]; 0.2 µM): 0.37 | viability ([15]; 1 µM): 0.257 | viability ([15]; 5 µM): 0.197 | viability ([16]; 0.008 µM): 0.934 | viability ([16]; 0.04 µM): 0.945 | viability ([16]; 0.2 µM): 0.924 | viability ([16]; 1 µM): 0.874 | viability ([16]; 5 µM): 0.866 | viability ([17]; 0.008 µM): 0.769 | viability ([17]; 0.04 µM): 0.659 | viability ([17]; 0.2 µM): 0.572 | viability ([17]; 1 µM): 0.437 | viability ([17]; 5 µM): 0.439 | viability ([18]; 0.008 µM): 1.01 | viability ([18]; 0.04 µM): 1 | viability ([18]; 0.2 µM): 0.97 | viability ([18]; 1 µM): 0.961 | viability ([18]; 5 µM): 0.966

Cc1cc(Nc2ncc(Cl)c(Nc3ccccc3S(=O)(=O)C(C)C)n2)c(OC(C)C)cc1C1CCNCC1 [Ceritinib]
viability ([1]; 0.024 µM): 1.05 | viability ([1]; 0.12 µM): 1.04 | viability ([1]; 0.6 µM): 0.617 | viability ([1]; 3 µM): 0.321 | viability ([1]; 15 µM): 0.0186 | viability ([2]; 0.024 µM): 0.945 | viability ([2]; 0.12 µM): 0.832 | viability ([2]; 0.6 µM): 0.743 | viability ([2]; 3 µM): 0.555 | viability ([2]; 15 µM): 0.0198 | viability ([3]; 0.024 µM): 0.846 | viability ([3]; 0.12 µM): 0.942 | viability ([3]; 0.6 µM): 0.631 | viability ([3]; 3 µM): 0.182 | viability ([3]; 15 µM): 0.0175 | viability ([4]; 0.024 µM): 0.968 | viability ([4]; 0.12 µM): 0.981 | viability ([4]; 0.6 µM): 0.883 | viability ([4]; 3 µM): 0.734 | viability ([4]; 15 µM): 0.0188 | viability ([5]; 0.024 µM): 0.966 | viability ([5]; 0.12 µM): 0.966 | viability ([5]; 0.6 µM): 0.9 | viability ([5]; 3 µM): 0.654 | viability ([5]; 15 µM): 0.0173 | viability ([6]; 0.024 µM): 1.02 | viability ([6]; 0.12 µM): 0.996 | viability ([6]; 0.6 µM): 0.964 | viability ([6]; 3 µM): 0.721 | viability ([6]; 15 µM): 0.0181 | viability ([7]; 0.024 µM): 1.03 | viability ([7]; 0.12 µM): 0.924 | viability ([7]; 0.6 µM): 0.961 | viability ([7]; 3 µM): 0.626 | viability ([7]; 15 µM): 0.023 | viability ([8]; 0.024 µM): 0.991 | viability ([8]; 0.12 µM): 1.04 | viability ([8]; 0.6 µM): 0.939 | viability ([8]; 3 µM): 0.86 | viability ([8]; 15 µM): 0.0194 | viability ([9]; 0.024 µM): 0.837 | viability ([9]; 0.12 µM): 0.718 | viability ([9]; 0.6 µM): 0.559 | viability ([9]; 3 µM): 0.173 | viability ([9]; 15 µM): 0.0192 | viability ([10]; 0.024 µM): 0.938 | viability ([10]; 0.12 µM): 0.924 | viability ([10]; 0.6 µM): 0.773 | viability ([10]; 3 µM): 0.53 | viability ([10]; 15 µM): 0.0233 | viability ([11]; 0.024 µM): 0.963 | viability ([11]; 0.12 µM): 0.957 | viability ([11]; 0.6 µM): 0.967 | viability ([11]; 3 µM): 0.982 | viability ([11]; 15 µM): 0.0181 | viability ([12]; 0.024 µM): 0.923 | viability ([12]; 0.12 µM): 0.788 | viability ([12]; 0.6 µM): 0.558 | viability ([12]; 3 µM): 0.35 | viability ([12]; 15 µM): 0.0155 | viability ([14]; 0.024 µM): 0.937 | viability ([14]; 0.12 µM): 0.903 | viability ([14]; 0.6 µM): 0.823 | viability ([14]; 3 µM): 0.754 | viability ([14]; 15 µM): 0.0293 | viability ([15]; 0.024 µM): 0.897 | viability ([15]; 0.12 µM): 0.84 | viability ([15]; 0.6 µM): 0.771 | viability ([15]; 3 µM): 0.4 | viability ([15]; 15 µM): 0.0197 | viability ([16]; 0.024 µM): 0.967 | viability ([16]; 0.12 µM): 0.946 | viability ([16]; 0.6 µM): 0.957 | viability ([16]; 3 µM): 0.892 | viability ([16]; 15 µM): 0.0187 | viability ([17]; 0.024 µM): 1 | viability ([17]; 0.12 µM): 0.934 | viability ([17]; 0.6 µM): 0.833 | viability ([17]; 3 µM): 0.572 | viability ([17]; 15 µM): 0.03 | viability ([18]; 0.024 µM): 1 | viability ([18]; 0.12 µM): 0.981 | viability ([18]; 0.6 µM): 1.03 | viability ([18]; 3 µM): 0.947 | viability ([18]; 15 µM): 0.0203
